Assay results as given in PubChem BioAssay (NCI).
Values joined by “and” are separate entries in the source; they are usually repeats but may differ in a detail not shown here. Equal values may be shown once.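 Exposure lasted 48 hours, with cells grown in 96-well plates and compounds tested at five concentrations. GI50 is the concentration that inhibits growth by half. Definition used: TGI = concentration required for complete inhibition of growth.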

Legend:
Test in all cases: NCI-60 cell line screen, 48 h
DU-145 prostate = test system: DU-145 prostate
OVCAR-4 ovarian = test system: OVCAR-4 ovarian
NCI-H226 lung = test system: NCI-H226 lung
NCI/ADR-RES ovarian = test system: NCI/ADR-RES ovarian
A549 NSCLC = test system: A549 NSCLC
MOLT-4 leukemia = test system: MOLT-4 leukemia
MCF7 breast = test system: MCF7 breast
HT29 colon = test system: HT29 colon
SK-OV-3 ovarian = test system: SK-OV-3 ovarian
786-0 renal = test system: 786-0 renal

| SMILES | GI50 (DU-145 prostate) [µM] | TGI (DU-145 prostate) | GI50 (OVCAR-4 ovarian) [µM] | TGI (OVCAR-4 ovarian) | TGI (NCI-H226 lung) [µM] | GI50 (NCI/ADR-RES ovarian) [µM] | TGI (NCI/ADR-RES ovarian) | GI50 (A549 NSCLC) [µM] | TGI (A549 NSCLC) | GI50 (MOLT-4 leukemia) [µM] | TGI (MOLT-4 leukemia) [µM] | GI50 (MCF7 breast) [µM] | TGI (MCF7 breast) | GI50 (HT29 colon) [µM] | TGI (HT29 colon) | GI50 (SK-OV-3 ovarian) [µM] | TGI (SK-OV-3 ovarian) | GI50 (786-0 renal) [µM] | TGI (786-0 renal) | GI50 (NCI-H226 lung) [µM] |
| --- | --- | --- | --- | --- | --- | --- | --- | --- | --- | --- | --- | --- | --- | --- | --- | --- | --- | --- | --- | --- |
| C#CCN1CCN(C(=S)N/N=C(\C)c2ccccn2)CC1 | 1.19 | 4.74 µM and 6.36 µM | 2.73 | 4.74 µM and 3.84 µM | 4.66 | 0.0304 | 1.68 µM and 1.56 µM | 0.273 | 8.09 µM and 2.16 µM | 0.136 | 2.28 | < 0.001 | 2.73 µM and 2.9 µM | 0.0028 | 3.74 µM and 8.33 µM | 1.57 | 2.91 µM and 5.09 µM | 0.243 | 4.62 µM and 4.87 µM |  |
| COc1ccc(-c2cnc(-c3ccc(F)cc3)[nH]2)cc1 | 2.59 | 7.59 µM | 10.1 | > 35.3 µM | > 62.3 | 28.6 | > 100 µM | 5.8 | 16.1 µM | 10.5 | 49.6 | 1.95 | 6.93 µM | 3.19 | > 32.8 µM | 16.5 | > 66.4 µM | 6.14 | 12.3 µM | 11 |
| CCc1cccc(CC)c1NC(=S)NC(=O)c1ccc(Br)cc1 |  | > 100 µM |  | > 50.4 µM | > 95.5 |  | > 100 µM |  | > 100 µM |  | 53.9 |  | 71.7 µM |  | > 100 µM |  | > 100 µM |  | > 100 µM |  |
| CCOC(=O)/C=C1\SC(=Nc2ccc(C#N)cc2)N(CCN2C(=O)/C(=C/C(=O)OCC)SC2=Nc2ccc(C#N)cc2)C1=O | 3.04 | 13.6 µM | 2.28 | 29.9 µM | 14.3 | 3.21 | 42.3 µM | 15.4 | 51.2 µM | 1.15 | > 100 | 0.353 | 17.7 µM | 1.11 | 10.1 µM | 15.3 | 41.7 µM | 2.08 | 6.33 µM | 3.53 |
| Cc1ccc(S(=O)(=O)Oc2ccc3c4c(c(=O)oc3c2)CCCCC4)cc1 | > 100 | > 100 µM | 7.11 | > 100 µM | > 100 | 6.76 | > 100 µM | > 100 | > 100 µM | 6.16 | > 100 | 9.16 | > 100 µM | 4.06 | > 100 µM | > 100 | > 100 µM | > 100 | > 100 µM | 7.5 |
| Nc1ccn([C@H]2C[C@@H](O)[C@@H](CO)S2)c(=O)n1 | > 100 | > 100 µM | > 100 | > 100 µM | > 100 | 19.6 | > 100 µM | > 100 | > 100 µM | > 100 | > 100 | > 100 | > 100 µM | > 100 | > 100 µM | > 100 | > 100 µM | > 100 | > 100 µM | > 100 |
| C/C=C(\C)C(=O)O[C@@H]1C(O)[C@H]2OC(COC(=O)CCC(=O)CCCCCC[C@H](CCCCC)O[C@@H]3OC(C)[C@H](OC(C)=O)C(O)[C@H]3O2)[C@H]1OC(=O)/C=C/c1ccccc1 (stereo partly drawn) | 0.0201 | > 44.2 µM | 1.74 | 42.5 µM | 7.38 | 0.336 | > 100 µM | < 0.01 | 32.3 µM | 3.28 | > 100 | < 0.01 | 17.3 µM | < 0.01 | 0.652 µM | 0.0419 | 13.3 µM | 0.028 | 7.61 µM | 0.0643 |
| COc1cc2c3c(n(CCCN4CCN(C)CC4)c(=O)c2cc1OC)-c1cc2c(cc1C3=O)OCO2 | 10.6 | 27.5 µM | 4.17 | 18.6 µM | 31 | 1.55 | 12.9 µM | 18.7 | 84.2 µM |  | 0.0353 | 8.82 | 64.8 µM | 16.9 | > 100 µM | 12.3 | 34 µM | 12.9 | 25.5 µM | 13.9 |
| N#CC1C(=N)Cc2ccccc2-c2ccccc21 (stereo not drawn) | 6.92 | 49.7 µM | 18 | > 100 µM | > 100 | 3.33 | 28.9 µM | 4.58 | > 100 µM | 5 | 43.4 | 4.2 | 80.1 µM | 4.1 | 19.6 µM | 4.92 | 41.2 µM | 9.66 | 35.2 µM | 11.4 |
| COc1cc2cc(Oc3ccc(NC(=O)Nc4ccccc4)cc3)c(C)nc2cc1OCCN1CCCCC1 | 5.92 | 11.4 µM | 6.96 | 18.2 µM | 12 | 6.54 | 14.5 µM | 7.26 | 18.6 µM | 4.98 | 11.7 | 5.14 | 10 µM | 3.32 | 9.35 µM | 7.8 | 16.6 µM | 5.58 | 11.1 µM | 5.82 |
| CC[N+](CC)=c1ccc2nc3c(cc(NCc4ccccc4)c4ccccc43)oc-2c1 | 0.155 | 0.291 µM | 0.176 | 1.63 µM | 1.83 | 0.227 | 1.76 µM | 0.215 | 0.56 µM | 0.346 | 3.17 | 0.165 | 0.474 µM | 0.189 | 0.773 µM | 1.12 | 2.32 µM | 0.497 | 1.85 µM | 0.358 |
| Nc1c(C(=O)c2cccc(OCCN3CCOCC3)c2)cnn1-c1ccc(F)cc1 | > 25 | > 25 µM | > 25 | > 25 µM | > 25 | > 25 | > 25 µM | > 25 | > 25 µM | > 25 | > 25 | > 25 | > 25 µM | > 25 | > 25 µM | > 25 | > 25 µM | > 25 | > 25 µM | > 25 |
| C(CCc1nnc2c(n1)CCCC2)Cc1nnc2c(n1)CCCC2 |  | > 100 µM |  | > 100 µM | > 100 |  | > 100 µM |  | > 100 µM |  | > 100 |  | > 100 µM |  | > 100 µM |  | > 100 µM |  | > 100 µM |  |
